These are literature values, as cited in patent publication US9908851B2, “2-piperidinyl substituted N,3-dihydroxybutanamides” (Duke University, priority 2013, dated 2018).

The test system of this series is N. gonorrhoeae 35/02 (drug-resistant strain). The conditions noted are these: strain 35/02; resistance profile of the strain.

Converted amounts (≈) assume the structure as drawn.

Turning to `CO/N=C(\C(=O)N[C@@H]1C(=O)N2C(C(=O)O)=C(CSc3nc(=O)c(=O)[nH]n3C)CS[C@H]12)c1csc(N)n1` [ceftriaxone], the MIC is 0.12 µg/mL (≈ 0.216 µM).
Consider penicillin, for which the minimal inhibitory concentration (MIC) was 6 µg/mL.
